Several values for one entry are separate records, joined by “and”; a condition that tells them apart may be missing. Equal values may be shown once. Entries after “also recorded” stand apart in the source; their conditions may differ.
Tests used:
[1] = logD7.4 by shake-flask HPLC-UV for nonfluorinated pyridines; type: physicochemical; settings: for logD: 1-octanol/phosphate buffer, pH 7.4, 1-octanol/phosphate buffer pH 7.4, HPLC-UV; for logD / logD7.4: nonfluorinated pyridines, mean of three; for logD7.4: 1-octanol/phosphate buffer pH 7.4, HPLC-UV; for logD (single sample A, B, C): Table S2, individual HPLC-UV partitionings at different buffer:octanol volume ratios, pH 7.4
Experimental: A protocol described by Ràfols and coworkers was followed for the determination of the log D ^7.4 values of the nonfluorinated pyridines. The 4-step process was replicated three times for each compound: • Stocksolution preparation: in a 12 mL vial, 15 mg of the pyridine was charged. Then, 6 mL of phosphate buffer at pH 7.4 was added, and the mixture was vigorously shaken for 2 h. An aliquot of this stock solution was measured by HPLC-UV. • Partitioning: three partitioning experiments were carried out for each compound. To prepare an experiment, in a vial containing a magnetic stir bar, a known amount of the stock solution was introduced, followed by another known amount of 1-octanol. Next, the biphasic mixture was stirred for 2 h and left to stand overnight to allow phase partition. For the selection of the different volume ratios, it was followed reported recommendations, although 1:1, 10:1, and 1:10 octanol:stock solutions were usually employed. • Sample preparation and measurement: to prepare the sample, 0.1 mL of the aqueous phase was taken and introduced in a 2 mL vial, following the precautions described in the previous section. The samples were then analyzed with the same HPLC-UV method as that of the stock solution. The log D ^7.4 value was obtaining by comparing the initial amount of pyridine in the aqueous phase before and after partitioning, taking into consideration the volume rates.

[2] = pKa of conjugate acid by 1H NMR titration (nonfluorinated analogues); type: physicochemical; settings: aqueous solutions of different pH, conjugate acid (pyridinium), water
Experimental: (§1) The measurements were conducted on the corresponding conjugate acids of the thiofluoroalkylpyridines using an ^19F NMR method developed by Leito and coworkers. For nonfluorinated analogues, pK a was determined by an analogous method using ^1H NMR. […] Likewise, internal difluorination of the thioethyl group led to a more acidic pyridinium (9, pK a 2.05) compared to terminal difluorination (6, pK a 2.43). […] Computationally, it is straightforward to determine pK a values for molecular organic systems, obtaining quantitative predictions via fitting to experimental data (Table S12).
A protocol developed by the group of Leito was followed for the determination of the […] of fluorinated 2-substituted pyridines using ^19F NMR. […] Next, the tube was caped and shaken vigorously, and the pH of the resulting solution was measured inside the tube with a pH meter with an NMR-tube probe. […] Next, a standard ^19F NMR experiment was recorded to determine the chemical shifts of the external standard and the sample of interest. […] The battery of NMR samples at different pH values was measured. • Data processing: using MestReNova NMR software, the chemical shifts of the pyridines were determined. […] Next, the selected signal for each pyridine was plotted against the pH of the measured solution. […]

[3] = logD7.4 by 19F NMR shake-flask partitioning (Linclau method); type: physicochemical; settings: for logD: 1-octanol/phosphate buffer; for logD (single replicate): Table S1, individual 19F NMR partitioning experiments
Experimental: LogD ^7.4 (pH 7.4) measurements of the 2-(thiofluoroalkyl)-pyridines were conducted according to a method developed by Linclau and coworkers, a variation on the traditional “shake-flask” partitioning between octanol and water. Together with a fluorinated internal standard of known lipophilicity, simple ^19F NMR experiments allowed for the calculation of the logD ^7.4 value of the compound of interest through integration of NMR signals in each phase. During our experiments, no difference between logD ^7.4 and logP values was observed, probably due to the low basicity of the pyridines. Nonetheless, for the sake of consistency, logD ^7.4 was deemed the appropriate parameter for evaluating lipophilicity.
A protocol developed by the group of Linclau was followed for the determination of the log D ^7.4 values of the 2-substituted pyridines. The 4-step process was replicated three times for each compound: • Partitioning: to a 10 mL pear-shaped flask were added 2 mL of 1-octanol, 2-substituted pyridine (1–10 mg), trifluoroethanol (5 μL), and 2 mL of phosphate buffer (pH 7.4). The resulting mixture was stirred at 25 °C for 2 h by controlling the temperature by an immersion cooler, and then, it was left to stand at 25 °C overnight to enable complete phase separation. • Sample preparation: using a 1 mL disposable syringe, an aliquot of 0.6 mL was carefully taken from the aqueous or the 1-octanol phase. Next, the needle was carefully wiped with a dry tissue, and the aliquot was placed into an NMR tube, followed by addition of 0.1 mL of acetone-d 6. The NMR tubes were sealed using a rubber septum stopper and shaken to obtain a homogeneous solution for NMR measurement. When taking an aliquot of the lower water phase, to avoid the contamination of the syringe with the upper octanol phase, 0.05 mL of air was taken into the syringe before putting the needle into the solution, and while immersing it through the upper octanol layer, the air was gently pushed out. Upon reaching the water phase, all air bubbles are pushed out of the syringe, the aliquot is taken, and the needle is quickly removed from the solution. Then, a small amount of the water phase was discarded to ensure all traces of octanol are out of the needle, leaving a 0.6 mL sample in the syringe. • NMR measurement: fluorine (^19F{1H} NMR) nuclear magnetic resonance spectra were recorded on a Varian Mercury spectrometer or Bruker Avance Ultrashield (376.5 MHz for ^19F NMR). Parameters used in the determination of lipophilicities were obtained from the experiments carried out by Linclau and coworkers. First, the sealed tube was inserted to the NMR spectrometer, and following automatic locking and gradient shimming, a simple ^19F spectrum was recorded on the nonspinning sample to assess the required spectral width (SW) and frequency offset point (O1P). The O1P is centered between the two diagnostic F signals, and the spectral width (SW) is left at 200 ppm (it can be reduced if a better S/N ratio is required). Then, the 90° pulse was measured with the automated pulsecal routine obtaining a power (PW) of 16 μs. The measured 90° pulse, SW, and O1P were transferred into the inversion–recovery experiment. For practical purposes, it is recommended to use a D1 of 30 s for the octanol sample and of 60 s for the water sample as pulse delay, given the D1 value should be greater than 5*T1 for quantitative integration. The number of transients (NS) is selected for each sample to afford a suitable signal-to-noise ratio (SNR should be >250). • Data processing:data were processed using Mestre Nova NMR software. The obtained FID file was reprocessed using the following conditions: WFunction (LB = 2, exponential), zero filling (increasing points from 65,536 to 262,144) and then Fourier transform, followed by phasing with mouse and auto baseline correction. The integration ratio was obtained by manual integration.

[4] = pKa of conjugate acid by 19F NMR titration (Leito method); type: physicochemical; settings: aqueous solutions of different pH, conjugate acid (pyridinium), water
Experimental: as §1
A protocol developed by the group of Leito was followed for the determination of the […] of fluorinated 2-substituted pyridines using ^19F NMR. […] Next, the tube was caped and shaken vigorously, and the pH of the resulting solution was measured inside the tube with a pH meter with an NMR-tube probe. This procedure was repeated for all of the aqueous solutions to have a battery of NMR tubes at different pH values. If needed, additional solutions were prepared to ensure a continuum of pH values. • Sample measurement: for ^19F NMR measurements, a 3 mm NMR tube containing a solution of 8 mg of KF in 1 mL of D2O was inserted into the NMR tube of interest to serve as an external standard. Next, a standard ^19F NMR experiment was recorded to determine the chemical shifts of the external standard and the sample of interest. For the ^1H method, the same protocol was applied by changing the external standard for 5 μL of trifluoroethanol instead of KF. The battery of NMR samples at different pH values was measured. • Data processing: using MestReNova NMR software, the chemical shifts of the pyridines were determined. For ^19F NMR experiments, the KF reference was set to −125.00 ppm, and the closest ^19F signal of the pyridine was chosen for the chemical shift determination. For ^1H NMR experiments, the trifluoroethanol reference (CF3CH2OH) was set to 3.14 ppm, and the methyl signals of the nonfluorinated pyridines were chosen for the chemical shift determination. Next, the selected signal for each pyridine was plotted against the pH of the measured solution. Using Prism GraphPad software, a sigmoidal curve was adjusted, and the second derivate was performed to obtain the pK a value of the given pyridine.

[5] = stability in aqueous media during logD measurement; type: physicochemical; settings: during logD7.4 measurement period
Description: The computational model can also be employed to predict the lipophilicity of experimentally undetermined compounds such as pyridines 21 and 22 (Figure ).

[6] = set-up: method as in earlier work; settings: thiofluoroalkyl benzenes; logP (=logD7.4) measured indirectly by HPLC retention times; ref 36 (SI), O'Hagan group; cited from earlier work
[7] = pH 7.4, 1-octanol/phosphate buffer pH 7.4, 25 °C, trifluoroethanol reference, 19F NMR, mean of three, read-out: logD7.4
[8] = pH 7.4, Table S1, individual 19F NMR partitioning experiments, pH 7.4, read-out: logD (single replicate)

CSc1ccccn1 [Compound 1, 2-(methylthio)pyridine]
logD [1]: 1.69 | pKa [2]: 3.69

FC(F)Sc1ccccn1 [Compound 2, 2-((Difluoromethyl)thio)pyridine]
logD [3, 7]: 1.95 | pKa [4]: 1.7

FC(F)(F)Sc1ccccn1 [Compound 3, 2-((Trifluoromethyl)thio)pyridine]
logD [3, 7]: 2.13 | pKa [4]: 0.97

CC(F)(F)Sc1ccccn1 [Compound 4, 2-((1,1-Difluoroethyl)thio)pyridine]
logD7.4 ([3]; 1-octanol/phosphate buffer pH 7.4, 25 °C, trifluoroethanol reference, 19F NMR, mean of three): 1.84 | logD [3, 7]: 1.82 | pKa [4]: 2.05

CCSc1ccccn1 [Compound 5, 2-(Ethylthio)pyridine]
logD7.4 [1]: 2,26 | logD [1]: 2.26 | pKa [2]: 3.68

FC(F)CSc1ccccn1 [Compound 6, 2-((2,2-Difluoroethyl)thio)pyridine]
logD [3, 7]: 2.26 | pKa [4]: 2.43

FC(F)C(F)(F)Sc1ccccn1 [Compound 7, 2-((1,1,2,2-Tetrafluoroethyl)thio)pyridine]
logD [3, 7]: 2.27 | pKa [4]: 1.33

FC(F)(F)CSc1ccccn1 [Compound 8, 2-((2,2,2-Trifluoroethyl)thio)pyridine]
logD [3, 7]: 2.71 | pKa [4]: 1.49

FC(F)(F)C(F)(F)Sc1ccccn1 [Compound 9, 2-((Perfluoroethyl)thio)pyridine]
logD [3, 7]: 2.76 | pKa [4]: 0.94

CS(=O)(=O)c1ccccn1 [Compound 10, 2-(Methylsulfonyl)pyridine]
logD [1]: -0.43 | logD (single sample A, B, C) [1]: -0,407 and -0,414 and -0,469

O=S(=O)(CF)c1ccccn1 [Compound 11, 2-((Fluoromethyl)sulfonyl)pyridine]
logD [3, 7]: 0.1 | logD [3, 8]: 0.093 | logD (single replicate) ([3]; pH 7.4): 0,112 and 0,084

O=S(=O)(c1ccccn1)C(F)F [Compound 12, 2-((Difluoromethyl)sulfonyl)pyridine]
logD [3, 7]: 0.55 | logD [3, 8]: 0.576 | logD (single replicate) ([3]; pH 7.4): 0,541 and 0,538

O=S(=O)(c1ccccn1)C(F)(F)F [Compound 13, 2-((Trifluoromethyl)sulfonyl)pyridine]
logD [3, 7]: 1.43

O=S(=O)(CCF)c1ccccn1 [Compound 14, 2-((2-Fluoroethyl)sulfonyl)pyridine]
logD [3, 7]: -0.21 | logD (single replicate) ([3]; pH 7.4): -0,199 and -0,158 and -0,274

CCS(=O)(=O)c1ccccn1 [Compound 15, 2-(Ethylsulfonyl)pyridine]
logD7.4 [1]: -0,07 | logD [1]: -0.07 | logD (single sample A, B, C) [1]: -0,032 and -0,070 and -0,118

O=S(=O)(CC(F)F)c1ccccn1 [Compound 16, 2-((2,2-Difluoroethyl)sulfonyl)pyridine]
logD [3, 7]: 0.31 | logD [3, 8]: 0.304 | logD (single replicate) ([3]; pH 7.4): 0,315 and 0,309

CC(F)(F)S(=O)(=O)c1ccccn1 [Compound 17, 2-((1,1-Difluoroethyl)sulfonyl)pyridine]
logD [3, 7]: 0.79 | logD [3, 8]: 0.786 | logD (single replicate) ([3]; pH 7.4): 0,784 and 0,794

O=S(=O)(CC(F)(F)F)c1ccccn1 [Compound 18, 2-((2,2,2-Trifluoroethyl)sulfonyl)pyridine]
logD [3, 7]: 0.81 | logD [3, 8]: 0.813 | logD (single replicate) ([3]; pH 7.4): 0,802 and 0,803

O=S(=O)(c1ccccn1)C(F)(F)C(F)F [Compound 19, 2-((1,1,2,2-Tetrafluoroethyl)sulfonyl)pyridine]
logD [3, 7]: 1.43

O=S(=O)(c1ccccn1)C(F)(F)C(F)(F)F [Compound 20, 2-((Perfluoroethyl)sulfonyl)pyridine]
logD [3, 7]: 2.21

FCSc1ccccn1 [Compound 21, 2-((Fluoromethyl)thio)pyridine]
pKa [4]: 2.43 | stability in aqueous media [5]: decomposes in water; also recorded: decomposed in aqueous media; also recorded: water-unstable

FCCSc1ccccn1 [Compound 22]
pKa [4]: 3.08 | stability in aqueous media [5]: decomposes in water; also recorded: decomposed in aqueous media; also recorded: water-unstable

CC(F)(F)Sc1ccccc1 [SCF2CH3 Ph]
logD7.4 (Ph) [6]: 3.38

FC(F)(F)Sc1ccccc1 [SCF3 Ph]
logD7.4 (Ph) [6]: 3.70

FC(F)(F)CSc1ccccc1 [SCH2CF3 Ph]
logD7.4 (Ph) [6]: 3.30

CCSc1ccccc1 [SCH2CH3 Ph]
logD7.4 (Ph) [6]: 3.42

CSc1ccccc1 [SCH3 Ph]
logD7.4 (Ph) [6]: 2.87
